pIC50: −log10 of the molar value.
Assays:
[1] = system: phosphorylated fos-GHRct (fos-GHRct/Jak2 signaling); assay: Cell based primary screen: immune fluorescence (anti-GHR, anti-pY, anti-pJak2, anti-pSTAT5) of fos-GHRct-transfected γ2A iJak2 cells; design: species or system human; conditions: for pIC50: Homo sapiens, Table_2.xlsx, second analogue set, read-out: GHR INHIBITORS, BM#, IC50
Experimental: Drug handling and cell-based assays are detailed in Supplementary Data 1 , automation. High-Content StratoMineR ([35]). After incubation with the compounds, the cells were fixed and the fluorescence (anti-GHR, anti-pY, anti-pJak2, anti-pSTAT5) was quantitated.
As it was unknown whether the GH/IGF1 axis is druggable, we designed a broad strategy based on our previous studies in which soluble fos-zipped GHR cytosolic tails (fos-GHRct) can serve as signaling complexes if co-expressed with Jak ([32], [39]). Fos-GHRct expressed without Jak2 is immediately degraded by the ubiquitin pathway. Phosphorylated fos-GHRct (fos-pGHRct) detaches from Jak2 and unzips. Only unzipped fos-pGHRct are protected from proteasomal degradation and accumulate in the cell. […] For 6 scenarios the signal will be decreased: (1) inhibition of Jak2 kinase activity, (2) inhibition of fos-GHRct expression, (3) inhibition of the fos-GHRct : Jak2 interaction, (4) increased degradation of fos-pGHRct, (5) increased degradation of Jak2, and (6) dephosphorylation of fos-pGHRct ([32], [39]).
Figure 1 Diagram of the primary screen. […] If fos-GHRct and Jak2 bind via FERM and box-1, Jak2 gets activated and phosphorylates itself, the dimerized fos-GHRct and STAT5b. After phosphorylation of fos-GHRct, Jak2 and STAT5, the complex dissociates. As fos-pGHRct is protease-resistant, it accumulates in the cells. Unphosphorylated fos-GHRct is rapidly degraded. Steady state levels of fos-pGHRct are lower if one of the 6 scenarios is valid. The cell-based assay was performed in γ2A cells carrying inducible Jak2 (iJak2) or binding-deficient iJak2 Y119E (as control) ( Figure 2 ). […]
1. Cell based primary screen
The assay was based on Fos-zippered GHR cytosolic tails (fos-GHRct) subsequently acting […]
Fig S1A. Immune Fluorescence staining of γ2a Fig S1B. Immune Fluorescence staining of γ2a monoclonal cell line stably transfected with an monoclonal cell line stably transfected with an inducible Jak2 WT expression construct. inducible Jak2 Y119E expression construct. aim we used a human fibroblast cell line
From this line we generated doxycycline inducible Jak2 clones, expressing either wild type Jak2 or Y119E mutant Jak2 whose FERM domain does […]
To establish a sensitive test, sufficient […]
control the system, we used fos-GHRct mutated in box-1 or the cell line expressing mutant (Y119E) Jak2. The box-1 motif is the binding site of Jak2 in GHR; mutation of this motif (all four proline into alanine) is known to reduce the binding between GHR and Jak2. In the primary screen we measured 4 different signals: fos-GHRct (anti-GHR), tyrosine phosphorylated fos-GHRct (anti-pY), tyrosine phosphorylated Jak2 (anti-pY or anti- […]
inhibition of either fos-GHRct stabilization or fos-GHRct synthesis, are considered positive.
Immunoblots are not appropriate for high throughput screening. Using fos-GHRct-transfected cells as in Fig. S3 and pY-specific primary antibodies, we developed a high throughput screening assay based on pY-fos-GHRct immune fluorescent detection in 384-well plates with automated microscopy. […]
panel). From left to right: Dapi staining to visualize nuclei, fos-GHRct staining: GHRtails are detected by […]

MM231 = system: MM231; design: method as in PMID 28576744, PMID 17463090; conditions: cited from earlier work
[2] = system: COLO-205 human colon cancer cells; design: method as in PMID 15736405; conditions: cited from earlier work
hGH = assay: Steady state hGH in hGH-transfected Y2A cells (general protein synthesis); type: cell-based, human; conditions: drug treatment overnight (10 µM); CHX 40 µg/ml
Description: Figure S14. The best 5 compounds from the dose-response curves were used to test their effect on cell proliferation. They inhibit proliferation of triple negative human breast cancer (MDA-MB-231) cells and colon […]
8. Effect of selected drugs on GH synthesis […]
intracellular steady state concentration of a secretory glycoprotein (human growth hormone, hGH): its steady state is the result of synthesis, glycosylation, intracellular transport and […]
amount of hGH, while none of the compounds changed the steady state concentration in the […]
Figure S15. Y2A cells were transfected with 5 µg of a hGH-pcDNA construct in a 24-well plate; drug treatment overnight (10 µM) as indicated (CHX, cycloheximide 40 µg/ml). […]
control drug, 10 µM. Right lane: human GH 20 ng (control). Only cycloheximide decreased the steady state concentration of hGH in the cells. hGH in the lysates was detected with a rabbit anti-GH antibody.
Furqan, M., N. Mukhi, B. Lee, and D. Liu. 2013. Dysregulation of JAK-STAT pathway in hematological malignancies and JAK inhibitors for clinical application. Biomarker research. 1:5.
Malergue, F., A. van Agthoven, C. Scifo, D. Egan, and G.J. Strous. 2015. Automation of a phospho-STAT5 staining procedure for flow cytometry for application in drug discovery. J Biomol Screen. 20:416-421.
Nespital, T., L.M. van der Velden, A. Mensinga, E.D. van der Vaart, and G.J. Strous. 2016. […]

[3] = system: GH-induced GHR-Jak2-Stat5 signaling in IM9 lymphoblasts; assay: Flow cytometric (FACS) pSTAT5 test, GH-induced, IM9 cells in whole blood; conditions: drugs 50 µM for 15 MIN
Experimental: First round: The PerFix EXPOSE (Beckman Coulter), was used to fix and permeabilize cells according to the optimized procedure described in Malergue et al., 2015 ([36]). Samples were analyzed in FC500 MPL. Data were analyzed with Kaluza software (Beckman Coulter). Second round: the PerFix EXPOSE was used according to the IFU and samples were analyzed in a Navios Cytometer. The first screening used pure IM-9 cells, whereas in the second round they were spiked in 100 µL whole blood (EDTA tubes). 15 min after the inhibitory compounds, the activators were added for 20-30 min.
In short: A mixture of blood and
IM9 human lymphoblast was incubated with the drugs (50 µM) for 15 MIN; GH and GM-CSF
were added 7 min before the cells were fixed with formaldehyde. Blood cells are sensitive to
GM-CSF, and not to GH; IM9 cells are sensitive to GH. A mixture of three antibodies in three
colors; CD14-FITC, CD34-PE and p-Stat5-Alexa 647 was used to analyze the p-Stat5 levels
of monocytes and IM9 cells.
Fig. S8A. FACS plots of compounds that inhibit GH-induced GHR-Jak2-Stat5 signaling in IM9 lymphoblasts.
The end point of the signaling cascade is measured by assessing the phosphorylation status of STAT5.
Stat5. Conc of drugs: 1 mM; incubation time 30 min
Fig. S8B. FACS plots of compounds that inhibit GM-CSF-Jak2-Stat5 signaling in blood monocytes. The end
point of the signaling cascade is measured by assessing the phosphorylation status of STAT5.

Molecule	pIC50 [1]	other results
Cc1ccc(S(=O)(=O)OCC(=O)Nc2ccc(C(=O)O)c(O)c2)cc1 [S3I-201]		tumor response (in words) (MM231): tumor regression
CCn1c(C(=O)N(C2CC2)C2CC2)cc2c3c(ncn3C)c(Nc3cc(C)n(C)n3)nc21 [BMS-911543, reference compound]		IC50, percentage pY positive cells ([1]; γ2A cells treated for 24 h, Fig S5): nanomolar range
pegvisomant		decrease in tumor weight compared to controls [2]: 44%; decrease in tumor-volume compared to controls [2]: 39%
CCOC(=O)CCOc1c(OC)cc(NCc2ccc3nc(N)nc(N)c3c2C)cc1OC [BM005]	6.70	
C[C@@H]1C[C@@H]([C@H](O)CC2CC(=O)NC(=O)C2)C(=O)[C@@H](C)C1 [cycloheximide]		steady state concentration of hGH in the cells (hGH): decreased
O=C1C(Cl)=C/C(=N/S(=O)(=O)c2cccs2)c2ccccc21 [AQ-390/41647621]		inhibition in the FACS assay [3]: > 30%

Second part, led by results:

pIC50 [1]	Molecule	other results
6.40	CC(C)(/C=C/c1c(N)nc(N)nc1CCC(F)(F)F)c1ccc(C(F)(F)F)cc1 [BM007]	
6.05	CC1(C)Cc2ccc3nc(N)nc(N)c3c2O1 [BM014]	
6.05	Cc1c(-c2cccc(C(F)(F)F)c2)ccc2nc(N)nc(N)c12 [BM013]	
6.10	Cc1nc(N)nc(NCc2ccccn2)c1/C=C/C(C)(C)c1ccc(C(F)(F)F)cc1 [BM010]	
6.05	Cc1c(-c2cccc(S(C)(=O)=O)c2)ccc2nc(N)nc(N)c12 [BM011]	
6.30	Cc1cc(C)cc(-c2ccc3nc(N)nc(N)c3c2C)c1 [BM008]	
6.22	Nc1nc(N)c2c(ccc3c2ccn3CC2CC2)n1 [BM009]	
6.70	Cc1nc(N)nc(N)c1CCC(C)c1ccc(F)cc1 (stereo not drawn) [BM006]	

— PMC9365994, “Small molecules to regulate the GH/IGF1 axis by inhibiting the growth hormone receptor synthesis” (Frontiers in Endocrinology, 2022)
